Source: US7322965B2, “Infection-resistant medical devices” (priority 2002, dated 2008)
Entries after “also recorded” stand apart in the source; their conditions may differ. Read-outs that look alike come from different tables or passages of the source. Marks after values point to notes of the source that are not given here.

How the values were obtained:
S. epidermidis RP62A [1] = assay: Time course adherence assay (prophylactic and delayed treatment); assay type: cell-based; conditions: for inhibition at 1 µg/mL / inhibition at 2 µg/mL / inhibition at 4 µg/mL / inhibition at 8 µg/mL: Staphylococcus epidermidis, read-out: Percent inhibition of bacterial adherence relative to controls
Experimental: Drug effects on bacterial adherence were measured 18 hours after treatment initiation using a quantitative spectrophotometric assay.
Relative inhibition of adherence was expressed by the following equation: (OD of control well−OD of treated well/OD of control well)×100, where OD is the mean optical density of six replicate wells from two separate experiments (three replicates per experiment). Control was defined as infected, drug-free cultures.
The primary efficacy variable in this study was the measurement of adherent bacteria to polystyrene surfaces after 18 hours to 24 hours of growth. To determine whether statistically significant differences existed between treatments (4×MIC, 2×MIC, MIC, and ½ MIC) compared with the infected-nontreated controls, multiple comparisons according to Dunnett's test (Montgomery, Design and Analysis of Experiments (1991)) were applied for each clinical strain. Differences were considered statistically significant when p<0.05.

S. epidermidis UC-20207 = assay: Microtiter-plate adherence assay on polystyrene; assay type: cell-based; conditions: for Adherence Mean OD550: S. epidermidis UC-20207, 18 h
Experimental: (§1) Briefly, the inoculum was established by the direct colony suspension method using the Prompt™ Inoculation System (Becton Dickinson, Sparks, Md.). The bacteria suspension, which was equal to the turbidity of a 0.5 McFarland standard, was diluted in TSB to a concentration of 1×10^6 colony forming units per ml (CFU/mL). One hundred microliters of the cell suspension was added to flat-bottom polystyrene wells (Corning Costar, Corning, N.Y.) containing 100 μl of TSB, with and without drug. The final inoculum concentration per well was approximately 5×10^5 CFU/mL. The plates were incubated at 37° C. under static conditions in air. At 18 hours (h) post-infection, the optical density of bacterial growth was measured at a wavelength of 595 nm in a microtiter plate reader (Vmax; Molecular Devices, Sunnyvale, Calif.). […] Adherent “sessile” cells then were fixed with 3.7% (v/v) formaldehyde/2% (w/v) sodium acetate and stained with 0.1% (w/v) crystal violet. Excess stain was rinsed off with deionized water and the plates were air-dried for 4 h. The optical density of bacterial adherence was determined at a wavelength of 550 nm. […] To compensate for background absorbance, optical density readings from wells treated with sterile medium, fixative and stain as described above were averaged and then subtracted from all test and control wells. Relative inhibition of adherence or growth was expressed by the following equation: (OD of control well−OD of treated well/OD of control well)×100, where OD is the mean optical density of six replicate wells from two separate experiments (three replicates per experiment). Control was defined as infected, drug-free cultures.
(§2) The primary efficacy variable in this study was the measurement of adherent bacterial cells to polystyrene after 18 h of growth. To determine whether statistically significant differences existed between treatment groups (MIC, ½ MIC, and ¼ MIC) compared with the infected-nontreated controls, the Kruskal-Wallis one-way analysis of variance (ANOVA) was applied for each clinical strain. Statistical significance was defined as p-values ≦0.05. An asterisk (*) was placed by all test values less than or equal to the specified significance level.

S. epidermidis RP62A [2] = assay: Microtiter-plate adherence assay on polystyrene; assay type: cell-based; conditions: 18 h; for Adherence Mean OD550: S. epidermidis RP62A
Experimental: as §1, §2

[3] = system: S. aureus and S. epidermidis strains; assay: Microtiter-plate adherence assay, summary over all strains evaluated; assay type: cell-based, staphylococci; conditions: concentrations less than the MIC, as low as one-fourth the MIC; five strains
Experimental: Briefly, the inoculum was established by the direct colony suspension method using the Prompt™ Inoculation System (Becton Dickinson, Sparks, Md.). The bacteria suspension, which was equal to the turbidity of a 0.5 McFarland standard, was diluted in TSB to a concentration of 1×10^6 colony forming units per ml (CFU/mL). One hundred microliters of the cell suspension was added to flat-bottom polystyrene wells (Corning Costar, Corning, N.Y.) containing 100 μl of TSB, with and without drug. The final inoculum concentration per well was approximately 5×10^5 CFU/mL. The plates were incubated at 37° C. under static conditions in air. At 18 hours (h) post-infection, the optical density of bacterial growth was measured at a wavelength of 595 nm in a microtiter plate reader (Vmax; Molecular Devices, Sunnyvale, Calif.). […] Adherent “sessile” cells then were fixed with 3.7% (v/v) formaldehyde/2% (w/v) sodium acetate and stained with 0.1% (w/v) crystal violet. Excess stain was rinsed off with deionized water and the plates were air-dried for 4 h. The optical density of bacterial adherence was determined at a wavelength of 550 nm. Preliminary studies were performed to determine the optimal wavelengths for measuring growth turbidity and stained adherent cells (data not shown). To compensate for background absorbance, optical density readings from wells treated with sterile medium, fixative and stain as described above were averaged and then subtracted from all test and control wells. Relative inhibition of adherence or growth was expressed by the following equation: (OD of control well−OD of treated well/OD of control well)×100, where OD is the mean optical density of six replicate wells from two separate experiments (three replicates per experiment). Control was defined as infected, drug-free cultures.
as §2

[4] = Staphylococcus epidermidis, UC20207, 18 h, read-out: Adherence % Inhibition
[5] = Staphylococcus epidermidis, RP62A, read-out: Adherence % Inhibition

CN[C@H](CC(C)C)C(=O)N[C@H]1C(=O)N[C@@H](CC(N)=O)C(=O)N[C@H]2C(=O)N[C@H]3C(=O)N[C@H](C(=O)N[C@H](C(=O)O)c4cc(O)cc(O)c4-c4cc3ccc4O)[C@H](O)c3ccc(c(Cl)c3)Oc3cc2cc(c3O[C@@H]2O[C@H](CO)[C@@H](O)[C@H](O)[C@H]2O[C@H]2C[C@](C)(N)[C@H](O)[C@H](C)O2)Oc2ccc(cc2Cl)[C@H]1O [Vancomycin]
Mean OD550 (S. epidermidis RP62A [1]; 1.0 μg/ml, treatment 0 h post-infection): 0.664 ± 0.632 | Mean OD550 (S. epidermidis RP62A [1]; 1.0 μg/ml, treatment 2 h post-infection): 1.147 ± 0.527 | Mean OD550 (S. epidermidis RP62A [1]; 1.0 μg/ml, treatment 4 h post-infection): 2.311 ± 0.318 | Mean OD550 (S. epidermidis RP62A [1]; 1.0 μg/ml, treatment 6 h post-infection): 2.202 ± 0.238 | Mean OD550 (S. epidermidis RP62A [1]; 2.0 μg/ml (MIC), treatment 0 h post-infection): 0.002 ± 0.002 | Mean OD550 (S. epidermidis RP62A [1]; 2.0 μg/ml (MIC), treatment 2 h post-infection): 0.000 ± 0.001 | Mean OD550 (S. epidermidis RP62A [1]; 2.0 μg/ml (MIC), treatment 4 h post-infection): 1.312 ± 0.936 | Mean OD550 (S. epidermidis RP62A [1]; 2.0 μg/ml (MIC), treatment 6 h post-infection): 2.114 ± 0.439 | Mean OD550 (S. epidermidis RP62A [1]; 4.0 μg/ml, treatment 0 h post-infection): 0.002 ± 0.002 | Mean OD550 (S. epidermidis RP62A [1]; 4.0 μg/ml, treatment 2 h post-infection): 0.000 ± 0.002 | Mean OD550 (S. epidermidis RP62A [1]; 4.0 μg/ml, treatment 4 h post-infection): 0.003 ± 0.004 | Mean OD550 (S. epidermidis RP62A [1]; 4.0 μg/ml, treatment 6 h post-infection): 1.562 ± 0.573 | Mean OD550 (S. epidermidis RP62A [1]; 8.0 μg/ml, treatment 0 h post-infection): 0.001 ± 0.001 | Mean OD550 (S. epidermidis RP62A [1]; 8.0 μg/ml, treatment 2 h post-infection): 0.000 ± 0.001 | Mean OD550 (S. epidermidis RP62A [1]; 8.0 μg/ml, treatment 4 h post-infection): 0.004 ± 0.004 | Mean OD550 (S. epidermidis RP62A [1]; 8.0 μg/ml, treatment 6 h post-infection): 0.025 ± 0.030 | inhibition at 1 µg/mL (S. epidermidis RP62A [1]; 0 h): 69.3% | inhibition at 2 µg/mL (S. epidermidis RP62A [1]; 0 h): 99.9% | inhibition at 4 µg/mL (S. epidermidis RP62A [1]; 0 h): 99.9% | inhibition at 8 µg/mL (S. epidermidis RP62A [1]; 0 h): 99.9% | inhibition at 1 µg/mL (S. epidermidis RP62A [1]; 2 h): 41.4% | inhibition at 2 µg/mL (S. epidermidis RP62A [1]; 2 h): 100% | inhibition at 4 µg/mL (S. epidermidis RP62A [1]; 2 h): 100% | inhibition at 8 µg/mL (S. epidermidis RP62A [1]; 2 h): 100% | inhibition at 1 µg/mL (S. epidermidis RP62A [1]; 4 h): 0% | inhibition at 2 µg/mL (S. epidermidis RP62A [1]; 4 h): 29.4% | inhibition at 4 µg/mL (S. epidermidis RP62A [1]; 4 h): 99.8% | inhibition at 8 µg/mL (S. epidermidis RP62A [1]; 4 h): 99.8% | inhibition at 1 µg/mL (S. epidermidis RP62A [1]; 6 h): 0% | inhibition at 2 µg/mL (S. epidermidis RP62A [1]; 6 h): 0% | inhibition at 4 µg/mL (S. epidermidis RP62A [1]; 6 h): 19% | inhibition at 8 µg/mL (S. epidermidis RP62A [1]; 6 h): 98.7% | Adherence Mean OD550 (S. epidermidis UC-20207; drug 0.5 μg/ml): 2.177 ± 0.424 | Adherence Mean OD550 (S. epidermidis UC-20207; drug 2.0 μg/ml (MIC)): 0.001 ± 0.002* | inhibition at 0.5 µg/mL (S. epidermidis UC-20207; [4]): 0% | inhibition at 1 µg/mL (S. epidermidis UC-20207; [4]): 0% | inhibition at 2 µg/mL (S. epidermidis UC-20207; [4]): 100% | Adherence Mean OD550 (S. epidermidis RP62A [2]; drug 1.0 μg/ml): 1.728 ± 0.952 | Adherence Mean OD550 (S. epidermidis RP62A [2]; drug 2.0 μg/ml (MIC)): 0.000 ± 0.002* | inhibition at 0.5 µg/mL (S. epidermidis RP62A [2]; [5]): 0% | inhibition at 1 µg/mL (S. epidermidis RP62A [2]; [5]): 36.6% | inhibition at 2 µg/mL (S. epidermidis RP62A [2]; [5]): 100% | effect on bacterial adhesion at subinhibitory concentrations [3]: minimal or no activity against bacterial adhesion; also recorded: did not inhibit staphylococcal adherence in four of the five strains assessed
